Measurements: PMC4042160, “In silico, in vitro and cellular analysis with a kinome-wide inhibitor panel correlates cellular LRRK2 dephosphorylation to inhibitor activity on LRRK2” (Frontiers in Molecular Neuroscience, 2014)
Structures can show the parent of a compound that is named as a salt.

What was measured:
[1] = biological target: T1, GST-tagged truncated LRRK2 containing residues 970 to 2527 (Homo sapiens, UniProt Q5S007); test: In vitro LRRKtide peptide-substrate kinase assay, single dose testing (10 μM); format: biochemical; conditions: for % LRRKtide phosphorylation relative to solvent: LRRKtide assay @ 10 μM inhibitor, GST-LRRK2 970-2527, 10 μM ATP, mean, N = 3, solvent control = 100%
T1 construct: GST-tagged truncated LRRK2 containing residues 970 to 2527 (Life Technologies); purchased Life Technologies
T1 sequence (Q5S007 970-2527): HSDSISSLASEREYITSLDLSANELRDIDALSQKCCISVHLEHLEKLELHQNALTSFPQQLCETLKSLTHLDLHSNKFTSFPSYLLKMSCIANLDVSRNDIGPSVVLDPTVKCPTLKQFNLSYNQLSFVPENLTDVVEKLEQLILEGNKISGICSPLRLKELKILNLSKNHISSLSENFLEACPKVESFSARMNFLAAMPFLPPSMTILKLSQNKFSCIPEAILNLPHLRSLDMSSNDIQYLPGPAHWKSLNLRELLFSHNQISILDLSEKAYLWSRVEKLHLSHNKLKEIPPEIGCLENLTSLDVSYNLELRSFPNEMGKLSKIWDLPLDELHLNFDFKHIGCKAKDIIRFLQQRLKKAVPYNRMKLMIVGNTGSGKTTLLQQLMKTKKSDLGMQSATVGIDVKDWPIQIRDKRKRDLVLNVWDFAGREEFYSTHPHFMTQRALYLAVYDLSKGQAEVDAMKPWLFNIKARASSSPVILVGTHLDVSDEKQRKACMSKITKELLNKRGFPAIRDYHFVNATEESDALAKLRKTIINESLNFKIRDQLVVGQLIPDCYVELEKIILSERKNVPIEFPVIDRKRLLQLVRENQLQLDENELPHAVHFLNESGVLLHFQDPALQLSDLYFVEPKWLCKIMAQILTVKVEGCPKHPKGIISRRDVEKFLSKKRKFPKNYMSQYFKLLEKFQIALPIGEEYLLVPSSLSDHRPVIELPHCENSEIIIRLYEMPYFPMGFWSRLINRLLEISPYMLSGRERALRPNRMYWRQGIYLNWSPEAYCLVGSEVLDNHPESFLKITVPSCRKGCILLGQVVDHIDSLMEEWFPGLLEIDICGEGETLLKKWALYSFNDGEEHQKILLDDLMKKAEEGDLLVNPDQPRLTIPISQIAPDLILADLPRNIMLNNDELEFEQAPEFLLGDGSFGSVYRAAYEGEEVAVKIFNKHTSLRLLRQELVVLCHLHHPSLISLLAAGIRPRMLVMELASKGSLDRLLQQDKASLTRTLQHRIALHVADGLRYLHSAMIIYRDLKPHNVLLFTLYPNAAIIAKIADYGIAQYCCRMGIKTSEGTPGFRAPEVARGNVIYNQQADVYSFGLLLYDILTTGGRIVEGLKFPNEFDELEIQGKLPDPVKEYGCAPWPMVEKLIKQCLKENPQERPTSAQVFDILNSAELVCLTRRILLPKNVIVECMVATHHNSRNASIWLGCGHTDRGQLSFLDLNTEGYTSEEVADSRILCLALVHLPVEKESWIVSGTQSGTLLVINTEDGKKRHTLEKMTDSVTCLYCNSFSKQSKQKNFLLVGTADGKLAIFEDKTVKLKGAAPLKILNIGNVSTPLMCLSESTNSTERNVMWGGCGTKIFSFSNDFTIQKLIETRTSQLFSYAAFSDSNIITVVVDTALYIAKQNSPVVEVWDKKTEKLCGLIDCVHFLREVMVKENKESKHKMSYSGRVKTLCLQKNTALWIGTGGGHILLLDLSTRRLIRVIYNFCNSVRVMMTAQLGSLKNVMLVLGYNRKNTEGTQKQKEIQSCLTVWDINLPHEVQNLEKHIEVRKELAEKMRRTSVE

LRRK2 phospho-Ser935 = biological target: T2, LRRK2 phospho-Ser935 (Homo sapiens, UniProt Q5S007); test: Cellular LRRK2 phosphoserine 935 dephosphorylation spotblot assay in SH-SY5Y cells stably expressing 3xFlag-LRRK2; format: cell-based; conditions: for Phosphorylation level relative to solvent (%) (cellular pS935 assay): @ 5 μM for 2 h, SH-SY5Y stably expressing LRRK2, pS935/total LRRK2; for dephosphorylation of LRRK2 (Ser935): 5 μM, 2 h, SH-SY5Y
T2 construct: expressed in transfected cells
T2 sequence (Q5S007 whole entry): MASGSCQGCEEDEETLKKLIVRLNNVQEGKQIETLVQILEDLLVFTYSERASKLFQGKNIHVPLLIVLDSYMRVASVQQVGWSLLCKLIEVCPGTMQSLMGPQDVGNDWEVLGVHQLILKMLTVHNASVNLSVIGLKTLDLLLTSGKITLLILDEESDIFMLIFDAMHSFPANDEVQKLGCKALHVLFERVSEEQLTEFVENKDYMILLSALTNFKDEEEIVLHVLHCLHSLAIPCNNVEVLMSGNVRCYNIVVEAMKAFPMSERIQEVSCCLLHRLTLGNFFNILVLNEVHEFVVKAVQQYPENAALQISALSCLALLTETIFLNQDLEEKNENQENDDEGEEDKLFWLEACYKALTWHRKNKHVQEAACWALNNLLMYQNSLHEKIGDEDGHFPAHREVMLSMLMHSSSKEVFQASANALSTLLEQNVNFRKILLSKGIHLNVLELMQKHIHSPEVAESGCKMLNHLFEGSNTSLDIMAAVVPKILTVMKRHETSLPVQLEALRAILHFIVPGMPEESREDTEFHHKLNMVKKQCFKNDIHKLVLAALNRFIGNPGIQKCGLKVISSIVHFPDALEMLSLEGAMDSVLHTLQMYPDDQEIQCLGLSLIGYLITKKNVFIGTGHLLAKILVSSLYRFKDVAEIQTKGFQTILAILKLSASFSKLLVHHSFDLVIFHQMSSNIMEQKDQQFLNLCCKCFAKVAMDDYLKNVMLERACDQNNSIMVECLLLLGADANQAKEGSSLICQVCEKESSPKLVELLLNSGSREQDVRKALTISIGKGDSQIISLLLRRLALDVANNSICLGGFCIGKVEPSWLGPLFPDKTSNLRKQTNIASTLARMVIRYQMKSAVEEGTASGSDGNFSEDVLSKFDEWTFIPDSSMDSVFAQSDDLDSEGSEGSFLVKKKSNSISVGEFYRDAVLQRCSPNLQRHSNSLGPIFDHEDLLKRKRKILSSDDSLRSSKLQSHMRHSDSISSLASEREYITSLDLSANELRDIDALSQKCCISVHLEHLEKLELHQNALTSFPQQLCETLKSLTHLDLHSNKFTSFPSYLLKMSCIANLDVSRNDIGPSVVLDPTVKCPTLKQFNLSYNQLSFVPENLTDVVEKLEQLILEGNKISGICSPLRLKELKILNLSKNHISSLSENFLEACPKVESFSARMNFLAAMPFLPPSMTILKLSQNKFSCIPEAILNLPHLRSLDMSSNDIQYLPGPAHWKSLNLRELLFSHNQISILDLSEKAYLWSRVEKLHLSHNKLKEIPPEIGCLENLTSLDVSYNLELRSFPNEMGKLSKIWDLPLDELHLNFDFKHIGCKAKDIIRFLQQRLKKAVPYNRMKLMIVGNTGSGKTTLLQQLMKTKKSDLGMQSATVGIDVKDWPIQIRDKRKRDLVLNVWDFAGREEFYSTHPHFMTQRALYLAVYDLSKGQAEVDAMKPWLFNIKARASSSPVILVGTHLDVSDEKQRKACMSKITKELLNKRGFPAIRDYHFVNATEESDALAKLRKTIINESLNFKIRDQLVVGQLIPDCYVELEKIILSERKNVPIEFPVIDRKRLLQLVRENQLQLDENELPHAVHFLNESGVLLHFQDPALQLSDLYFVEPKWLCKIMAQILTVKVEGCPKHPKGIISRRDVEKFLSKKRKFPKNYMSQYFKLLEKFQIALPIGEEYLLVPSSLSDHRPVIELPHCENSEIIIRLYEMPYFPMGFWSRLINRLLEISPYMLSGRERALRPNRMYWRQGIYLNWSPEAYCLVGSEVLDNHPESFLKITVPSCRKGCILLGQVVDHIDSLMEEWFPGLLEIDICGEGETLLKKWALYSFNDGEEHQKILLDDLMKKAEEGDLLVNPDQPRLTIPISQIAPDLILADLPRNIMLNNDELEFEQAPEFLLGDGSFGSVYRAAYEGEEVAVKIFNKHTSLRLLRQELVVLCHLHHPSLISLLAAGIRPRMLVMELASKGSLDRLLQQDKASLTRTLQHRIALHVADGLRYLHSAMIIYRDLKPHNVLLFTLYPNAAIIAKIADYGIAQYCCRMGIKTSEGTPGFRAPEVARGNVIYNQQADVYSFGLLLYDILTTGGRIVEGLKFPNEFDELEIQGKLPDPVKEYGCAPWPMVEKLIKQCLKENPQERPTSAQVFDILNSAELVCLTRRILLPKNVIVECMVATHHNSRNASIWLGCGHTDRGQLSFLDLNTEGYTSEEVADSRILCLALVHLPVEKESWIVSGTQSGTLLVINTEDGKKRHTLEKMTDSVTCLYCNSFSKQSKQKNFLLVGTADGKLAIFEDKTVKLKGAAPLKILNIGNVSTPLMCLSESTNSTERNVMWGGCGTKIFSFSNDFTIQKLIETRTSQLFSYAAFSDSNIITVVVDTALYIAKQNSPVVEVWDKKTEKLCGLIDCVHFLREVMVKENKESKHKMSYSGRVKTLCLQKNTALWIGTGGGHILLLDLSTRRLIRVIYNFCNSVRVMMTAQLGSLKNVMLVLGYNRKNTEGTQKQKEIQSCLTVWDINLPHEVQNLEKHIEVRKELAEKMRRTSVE

Compound | % LRRKtide phosphorylation relative to solvent [1] [%] | Phosphorylation level relative to solvent (%) (cellular pS935 assay) (LRRK2 phospho-Ser935) | activity on LRRK2 kinase activity in vitro (in words) ([1]; no activity at 10 μM) | dephosphorylation of LRRK2 (Ser935) (LRRK2 phospho-Ser935) | Cellular pS935 (% @ 5 μM) (LRRK2 phospho-Ser935; pS935 level as % of control, 5 μM for 2 h, SH-SY5Y cells with stable expression of LRRK2) [%]
COc1ccc(C(=O)Nc2sc3c(c2C(N)=O)CCCC3)cc1OC [Flt-3 inhibitor] | 38.91 | 63.54 | – | – | –
Cc1nc(-c2ccccc2)c(-c2ccncc2)o1 [SC-68376] | 48.07 | 104.03 | – | – | –
O=C1C(Cl)=C(N2C(=O)CCC2=O)C(=O)c2ccccc21 [MEK inhibitor II] | 21.13 | 108.79 | – | – | –
Nc1nc(Nc2ccc(S(N)(=O)=O)cc2)nn1C(=O)c1c(F)cccc1F [Aurora kinase/Cdk inhibitor] | 1.21 | 45.67 | – | – | –
N#CC(c1ccnc(NCCc2cccnc2)n1)c1nc2ccccc2s1 (stereo not drawn) [JNK inhibitor V] | 37.61 | 71.85 | – | – | –
COc1ccc(Cl)cc1NC(=O)Nc1cc(C)nc2ccccc12 [IGF-1R inhibitor II] | 93.23 | 80.40 | – | – | –
cFMS receptor tyrosine kinase inhibitor | 110.22 | 60.62 | – | – | –
Indirubin-3′-monoxime | 11.18 | 85.53 | – | – | –
O=c1cc(N2CCOCC2)oc2c(-c3ccccc3)cccc12 [LY 294002] | 90.73 | 74.17 | – | – | –
O=c1cc(N2CCNCC2)oc2c(-c3ccccc3)cccc12 [LY 303511] | 107.82 | 47.60 | inactive | ~ 50% | –
O=C(Nc1cccc(Nc2cc(Nc3cccc(C(F)(F)F)c3)ncn2)c1)C1CC1 [EGFR inhibitor] | 64.37 | 57.76 | – | – | –
Nc1ncnc2c1cnn2-c1ccccc1 [PP3] | 68.38 | 84.67 | – | – | –
CCCCc1c(-c2ccc(O)cc2)[nH]c2nccnc12 [Aloisine A, RP107, Aloisine A] | 23.85 | 102.87 | – | – | –
Cn1nc2c3c(cccc31)C(=O)c1ccccc1-2 [JNK inhibitor, negative control] | 17.88 | 107.46 | – | – | –
Oc1ccc(Nc2nc(-c3ccc(Cl)cc3)cs2)cc1 [Sphingosine kinase inhibitor] | 106.21 | 144.00 | – | – | –
N/C(=N\[N+](=O)[O-])N/N=C\c1ccc(-c2cccc([N+](=O)[O-])c2)o1 [ERK inhibitor III] | 55.32 | 90.93 | – | – | –
O=C(CCCc1ccc(-c2ccccc2F)cc1)Nc1ccc(O)cc1 [MK2a inhibitor] | 123.21 | 60.73 | – | – | –
NCCNc1ncc(C(N)=O)c(Nc2cccc(C(F)(F)F)c2)n1 [Syk inhibitor II] | 3.50 | 76.71 | – | – | –
O=C(Nc1ccc(Cl)cc1)c1ccccc1NCc1ccncc1 [VEGF receptor tyrosine kinase inhibitor II] | 91.34 | 65.97 | – | – | –
c1ccc(-c2cnc(Nc3ccc(OCCN4CCCC4)cc3)s2)cc1 [Flt-3 inhibitor III] | 12.56 | 54.21 | – | – | –
CCCNC(=O)Nc1ccc(Oc2ncnc3cc(OC)c(OC)cc23)cc1Cl [KRN63] | 68.07 | 62.48 | – | – | –
O=C(Nc1nc2ccccc2n1CCN1CCOCC1)c1cccc([N+](=O)[O-])c1 [IRAK-1/4 inhibitor] | 55.78 | 71.83 | – | – | –
N#CCCc1ccc2c(c1)-c1[nH]c3ccc([N+](=O)[O-])cc3c1CC(=O)N2 [Alsterpaullone, 2-Cyanoethyl] | 10.82 | 96.84 | – | – | –
CCc1[nH]c(-c2ccc(OC)cc2)nc1-c1ccncc1 [SB 202474] | 47.64 | 112.24 | – | – | –

Compound | % LRRKtide phosphorylation relative to solvent [1] [%] | Phosphorylation level relative to solvent (%) (cellular pS935 assay) (LRRK2 phospho-Ser935) | activity on LRRK2 kinase activity in vitro (in words) ([1]; no activity at 10 μM) | dephosphorylation of LRRK2 (Ser935) (LRRK2 phospho-Ser935) | Cellular pS935 (% @ 5 μM) (LRRK2 phospho-Ser935; pS935 level as % of control, 5 μM for 2 h, SH-SY5Y cells with stable expression of LRRK2) [%]
NC(=O)c1ccc(-c2nc(-c3ccc4c(c3)OCCO4)c(-c3ccccn3)[nH]2)cc1 [Casein kinase I inhibitor, D4476, D4476] | 60.00 | 97.88 | – | – | –
CC(C)(C)c1nc2c3cc[nH]c(=O)c3c3cc(F)ccc3c2[nH]1 [JAK inhibitor I] | 3.20 | 47.17 | – | – | –
CCOc1nc(NC(=O)Cc2cc(OC)ccc2OC)cc(N)c1C#N [JNK inhibitor VIII] | 105.45 | 93.08 | – | – | –
C[C@@H](N)[C@H]1CC[C@H](C(=O)Nc2ccncc2)CC1 [ROCK inhibitor, Y-27632, Y-27632] | 10.36 | 69.28 | – | – | –
Cl.Cl.O=S(=O)(NCCNC/C=C/c1ccc(Br)cc1)c1cccc2cnccc12 [H-89, Dihydrochloride] | 45.29 | 155.11 | – | – | –
CCCCc1c(-c2ccc(OC)cc2)[nH]c2nccnc12 [Aloisine, RP106] | 17.45 | 109.11 | – | – | –
CO[C@H]1C[C@@H]2CC[C@@H](C)[C@@](O)(O2)C(=O)C(=O)N2CCCC[C@H]2C(=O)O[C@H]([C@H](C)C[C@@H]2CC[C@@H](O)[C@H](OC)C2)CC(=O)[C@H](C)/C=C(\C)[C@@H](O)[C@@H](OC)C(=O)[C@H](C)C[C@H](C)/C=C/C=C/C=C/1C [Rapamycin] | 101.20 | 65.24 | – | – | –
O=C1c2ccccc2-[n+]2ccc3c([nH]c4ccccc43)c21 [Fascaplysin, synthetic, Fascaplysin] | 17.51 | 45.44 | – | – | –
O=C(NC(NC(=S)Nc1ccc(F)c([N+](=O)[O-])c1)C(Cl)(Cl)Cl)C(c1ccccc1)c1ccccc1 (stereo not drawn) [ATM/ATR kinase inhibitor] | 131.38 | 88.64 | – | – | –
O=S(=O)(c1cccc2cnccc12)N1CCCNCC1 [HA 1077, Dihydrochloride Fasudil, Fasudil] | 79.40 | 89.37 | – | – | –
N#Cc1c(NC(=O)c2cccc3ccccc23)sc2c1CCCC2 [JNK inhibitor IX] | 61.45 | 42.05 | – | – | –
COc1ccc(-c2cnc3c(-c4ccsc4)cnn3c2)cc1 [VEGF receptor 2 kinase inhibitor IV] | 77.83 | 48.48 | – | – | –
COc1cccc(-c2cc(=O)c3ccccc3o2)c1N [PD98059] | 92.53 | 106.55 | – | – | –
O=C(c1cc2cc(O)ccc2[nH]1)c1cc2cc(O)ccc2[nH]1 [Flt-3 inhibitor II] | 2.16 | 53.00 | – | – | –
Oc1cccc(-c2nc(N3CCOCC3)c3oc4ncccc4c3n2)c1 [PI-103] | 88.58 | 71.34 | – | – | –
N#C/C(=C/c1ccc(O)c(O)c1)C(=O)NCc1ccccc1 [AG490] | 34.24 | 50.68 | – | 49.32% | –
O=C(O)c1ccc2c3c1cccc3c(=O)n1c3ccccc3nc21 [STO-609] | 15.01 | 121.51 | – | – | –
c1ccc2c(-c3ccncc3)c[nH]c2c1 [Rho kinase inhibitor III, rockout, rockout] | 32.15 | 63.04 | – | – | –
CSc1nc(-c2ccnc(NC(C)c3ccccc3)c2)c(-c2ccc(F)cc2)[nH]1 (stereo not drawn) [p38 MAP kinase inhibitor III] | 112.29 | 83.74 | – | – | –
Nc1cccc(-c2cc3c(Oc4cccc(O)c4)ncnc3[nH]2)c1 [GSK-3b inhibitor XII, TWS119, TWS119] | 13.54 | 122.47 | – | – | –
Cc1cc(Nc2nc(-c3ccccc3)nc3ccccc23)n[nH]1 [GSK-3 inhibitor XIII] | 3.34 | 73.51 | – | – | –
CCn1cnc2c(Nc3cccc(Cl)c3)nc(N[C@@H]3CCCC[C@@H]3N)nc21 [Cdk1 inhibitor, CGP74514A, CGP74514A] | 3.91 | 83.35 | – | – | –
CN[C@@H]1C[C@H]2O[C@@](C)([C@@H]1OC)n1c3ccccc3c3c4c(c5c6ccccc6n2c5c31)C(=O)NC4 [Staurosporine, Streptomyces sp., Staurosporine] | – | – | – | – | 8.89
